Results as given in PubChem BioAssay AID1259407 (Chemical Carcinogenesis Research Information System (CCRIS), 2018).
The source made the active and inactive calls. The rule behind the calls is not given here.

Tested on: CCRIS mutagenicity, Ames/micronucleus/aberration tests
Assay: CCRIS mutagenicity studies

CN(C)N=O
mutagenic call (End Point: IN VITRO CHROMOSOMAL ABERRATIONS, Test System: CHL/IU CELLS, Metabolic Activation: RAT, LIVER, S-9, PHENOBARBITAL AND 5,6-BENZOFLAVONE): active; positive (structural changes)
mutagenic call (End Point: IN VITRO CHROMOSOMAL ABERRATIONS, Test System: CHO CELLS, Metabolic Activation: NONE): inactive; negative
mutagenic call (End Point: IN VITRO MICRONUCLEUS, Test System: CHL/IU CELLS, Metabolic Activation: RAT, LIVER, S-9, PHENOBARBITAL AND 5,6-BENZOFLAVONE): active; positive
mutagenic call (End Point: IN VIVO MICRONUCLEUS, Test System: HEPATOCYTES, Species: RAT, Strain/Sex: FISHER 344 OR SD/MALE, Route: ORAL OR IP): active; positive
mutagenic call (End Point: IN VIVO MICRONUCLEUS, Test System: PERIPHERAL BLOOD RETICULOCYTES, Species: RAT, Strain/Sex: FISHER 344 OR SD/MALE, Route: ORAL OR IP): inactive; negative
mutagenic call (End Point: In vivo micronucleus, Test System: Liver, Species: Mouse, Strain/Sex: Big Blue/Male, Route: Oral): active; positive for laci mutation frequency in liver; high percentage of g:c to t:a t
mutagenic call (End Point: In vivo micronucleus, Test System: Micronucleated hepatocytes, Species: Rat, Strain/Sex: F344/Male, Route: Oral): active; positive (p<0.01)
mutagenic call (Test System: AMES SALMONELLA TYPHIMURIUM, Strain/Indicator: NM2000, Metabolic Activation: RAT, LIVER, S-9, ISONIAZID, Method: PREINCUBATION): active; positive
mutagenic call (Test System: AMES SALMONELLA TYPHIMURIUM, Strain/Indicator: NM2009, Metabolic Activation: RAT, LIVER, S-9, ISONIAZID, Method: PREINCUBATION): active; positive
mutagenic call (Test System: AMES SALMONELLA TYPHIMURIUM, Strain/Indicator: TA92, Metabolic Activation: MOUSE, LIVER, S-10, Method: PREINCUBATION): active; positive
mutagenic call (Test System: AMES SALMONELLA TYPHIMURIUM, Strain/Indicator: TA97, Metabolic Activation: NONE, Method: STANDARD PLATE): inactive; negative
mutagenic call (Test System: AMES SALMONELLA TYPHIMURIUM, Strain/Indicator: TA97, Metabolic Activation: RAT, LIVER, S-9, AROCLOR 1254, Method: STANDARD PLATE): inactive; negative
mutagenic call (Test System: AMES SALMONELLA TYPHIMURIUM, Strain/Indicator: TA98, Metabolic Activation: NONE, Method: STANDARD PLATE): inactive; negative
mutagenic call (Test System: AMES SALMONELLA TYPHIMURIUM, Strain/Indicator: TA98, Metabolic Activation: RAT, LIVER, S-9, AROCLOR 1254, Method: STANDARD PLATE): inactive; negative
mutagenic call (Test System: AMES SALMONELLA TYPHIMURIUM, Strain/Indicator: TA100, Metabolic Activation: HAMSTER, LIVER, S-9, AROCLOR 1254, NADPH GENERATING SYSTEM, CYTOSOL, Method: PREINCUBATION): active; positive
mutagenic call (Test System: AMES SALMONELLA TYPHIMURIUM, Strain/Indicator: TA100, Metabolic Activation: HAMSTER, LIVER, S-9, Method: PREINCUBATION): active; positive
mutagenic call (Test System: AMES SALMONELLA TYPHIMURIUM, Strain/Indicator: TA100, Metabolic Activation: HUMAN, LIVER, S-9, Method: PREINCUBATION): inactive; negative
mutagenic call (Test System: AMES SALMONELLA TYPHIMURIUM, Strain/Indicator: TA100, Metabolic Activation: MICROSOMES, CYTOSOL, Method: PREINCUBATION): active; positive
mutagenic call (Test System: AMES SALMONELLA TYPHIMURIUM, Strain/Indicator: TA100, Metabolic Activation: MOUSE, INTACT UROTHELIAL CELLS, Method: FLUCTUATION TEST): active; positive
mutagenic call (Test System: AMES SALMONELLA TYPHIMURIUM, Strain/Indicator: TA100, Metabolic Activation: MOUSE, LIVER, S-9, PHENOBARBITAL AND BETA-NAPHTHOFLAVONE, Method: PREINCUBATION): active; positive
mutagenic call (Test System: AMES SALMONELLA TYPHIMURIUM, Strain/Indicator: TA100, Metabolic Activation: MOUSE, LIVER, S-9, PHENOBARBITAL, BETA-NAPHTHOFLAVONE, ISOSAFROLE, ETHANOL, PREGNENOLONE AND 16ALPHA-CARBONITRILE, Method: PREINCUBATION): active; positive
mutagenic call (Test System: AMES SALMONELLA TYPHIMURIUM, Strain/Indicator: TA100, Metabolic Activation: NONE, Method: PREINCUBATION): inactive; negative
mutagenic call (Test System: AMES SALMONELLA TYPHIMURIUM, Strain/Indicator: TA100, Metabolic Activation: NONE, Method: STANDARD PLATE): inactive; negative
mutagenic call (Test System: AMES SALMONELLA TYPHIMURIUM, Strain/Indicator: TA100, Metabolic Activation: PIG, LIVER, S-9, Method: PREINCUBATION): inactive; negative
mutagenic call (Test System: AMES SALMONELLA TYPHIMURIUM, Strain/Indicator: TA100, Metabolic Activation: RABBIT, LIVER, S-9, Method: STANDARD PLATE): inactive; negative
mutagenic call (Test System: AMES SALMONELLA TYPHIMURIUM, Strain/Indicator: TA100, Metabolic Activation: RABBIT, LUNG, S-9, Method: STANDARD PLATE): inactive; negative
mutagenic call (Test System: AMES SALMONELLA TYPHIMURIUM, Strain/Indicator: TA100, Metabolic Activation: RABBIT, NASAL, S-9, Method: STANDARD PLATE): inactive; negative
mutagenic call (Test System: AMES SALMONELLA TYPHIMURIUM, Strain/Indicator: TA100, Metabolic Activation: RAT, INTACT UROTHELIAL CELLS, Method: FLUCTUATION TEST): active; positive
mutagenic call (Test System: AMES SALMONELLA TYPHIMURIUM, Strain/Indicator: TA100, Metabolic Activation: RAT, LIVER, S-9, AROCLOR 1254, (PREGNANT MARE SERUM), Method: PREINCUBATION): active; positive
mutagenic call (Test System: AMES SALMONELLA TYPHIMURIUM, Strain/Indicator: TA100, Metabolic Activation: RAT, LIVER, S-9, AROCLOR 1254, Method: PREINCUBATION): active; positive
